Values of other authors in patent US20240050339A1, “FORMULATION COMPRISING P-MENTHANE-3,8-DIOL” (priority 2020, published 2024).

Columns and labels:
Urbani SARS virus = details: PMD alone, from U.S. Pat. No. 7,872,051
[1] = tested on: SARS-CoV-2 England-2 isolate; details: one minute, mixed with the virus in the liquid phase

| SMILES | maximum log reduction (Urbani SARS virus) [log] | anti-viral activity in liquid suspension [1] |
| --- | --- | --- |
| CC1CCC(C(C)(C)O)C(O)C1 (stereo not drawn) [PMD, 2-(2-Hydroxypropan-2-yl)-5-methylcyclohexan-1-ol] | 2.5 | – |
| CCO [ethanol] | – | have anti-viral activity |
| CC(C)O [isopropanol, propan-2-ol] | – | have anti-viral activity |
